The record followed here is ChEMBL document CHEMBL1909294, “Translating clinical findings into knowledge in drug safety evaluation--drug induced liver injury prediction system (DILIps)” (PLoS Comput Biol, 2011).

Structures are written as SMILES.

Series [1] has as its system Hepatotoxicity.
The subject of series [2] is Hepatotoxicity. This is another data set of the same source.
Series [3] has as its system Hepatotoxicity. This is another data set of the same source.
For series [4], the system named is Hepatotoxicity. The source holds these as a separate data set.
Series [5] deals with Hepatotoxicity. The source holds these as a separate data set.
The subject of series [6] is Hepatotoxicity. The source holds these as a separate data set.
Series [7] concerns Hepatotoxicity. This is another data set of the same source.
The test system of series [8] is Hepatotoxicity. This is another data set of the same source.
Series [9] deals with Hepatotoxicity. The source holds these as a separate data set.
The test system of series [10] is Hepatotoxicity. This is another data set of the same source.
In series [11] the test system is Hepatotoxicity. This is another data set of the same source.
For series [12], the system named is Hepatotoxicity. This is another data set of the same source.
Series [13] relates to Hepatotoxicity. The source holds these as a separate data set.
In series [14] the test system is Hepatotoxicity. This is another data set of the same source.
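Wherever HepSE Combined Scores is given: combined hepatic side effect score as listed in the training data of the Drug Induced Liver Injury Prediction System (DILIps).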
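Wherever HepSE bilirubinemia is given: bilirubinemia hepatic side effect score drawn from the DILIps training data, a prediction system for drug-induced liver injury; call rule not given here.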
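Wherever HepSE cholecystitis is given: Cholecystitis-related hepatic side effect score drawn from the DILIps (drug-induced liver injury prediction) training data set; call rule not given here.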
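Wherever HepSE cholelithiasis is given: hepatic side effect score for cholelithiasis, drawn from the DILIps training data for predicting drug-induced liver injury; call rule not given here.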
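Wherever HepSE cirrhosis is given: cirrhosis hepatic side effect score taken from the DILIps (drug-induced liver injury prediction) training set; call rule not given here.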
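Wherever HepSE elevated liver function tests is given: hepatic side effect score for raised liver function tests, as recorded in the DILIps training set used for predicting drug-induced liver injury.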
Wherever HepSE hepatic failure is given: call rule not given here.
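Wherever HepSE hepatic necrosis is given: score of hepatic side effects for hepatic necrosis, drawn from the training data of DILIps, a prediction system for drug-induced liver injury; call rule not given here.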
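Wherever HepSE hepatitis is given: Hepatitis-related hepatic side effect score taken from the training data of DILIps, a prediction system for drug-induced liver injury; call rule not given here.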
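Wherever HepSE hepatomegaly is given: hepatic side effect score for hepatomegaly, taken from the training set of the DILIps drug-induced liver injury prediction system; call rule not given here.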
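Wherever HepSE jaundice is given: Jaundice-related hepatic side-effect score drawn from the training data of the DILIps (drug-induced liver injury prediction system); call rule not given here.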
Wherever HepSE liver disease is given: call rule not given here.
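Wherever HepSE liver fatty is given: hepatic side effect score for fatty liver, taken from the DILIps training set for predicting drug-induced liver injury; call rule not given here.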
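Wherever HepSE liver function tests abnormal is given: hepatic side effect score taken from the DILIps (drug-induced liver injury prediction system) training data, here covering abnormal liver function test findings.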

As for `CC1(C)S[C@@H]2[C@H](NC(=O)COc3ccccc3)C(=O)N2[C@H]1C(=O)O` [PENICILLIN V], the HepSE_bilirubinemia with Hepatotoxicity [1] is on record as 0. This compound came in with a HepSE_liver fatty in the series with Hepatotoxicity [2] of 0. In the series with Hepatotoxicity [3], this compound gave a HepSE_cholecystitis of 0. The compound further registered a HepSE_cholelithiasis in the series on Hepatotoxicity [4] of 0. Also, in the series with Hepatotoxicity [5], the “HepSE_Combined Scores” value was determined as 0. In the series on Hepatotoxicity [6], this compound returned a HepSE_hepatomegaly of 0. The compound further gave a HepSE_hepatic necrosis in the series on Hepatotoxicity [7] of 0. In the series with Hepatotoxicity [8], this compound registered a HepSE_liver disease of 0. The same compound displayed a HepSE_cirrhosis in the series with Hepatotoxicity [9] of 0. The compound also gave a HepSE_hepatitis with Hepatotoxicity [10] of 0. The “HepSE_elevated liver function tests” value with Hepatotoxicity [11] came out at 0. In the series on Hepatotoxicity [12], this compound came in with a HepSE_jaundice of 0. In addition, the HepSE_hepatic failure with Hepatotoxicity [13] was determined as 0. Also, the “HepSE_liver function tests abnormal” value with Hepatotoxicity [14] came to 0.

Compound `COc1ccc2[nH]c([S+]([O-])Cc3ncc(C)c(OC)c3C)nc2c1` (stereo not given) [OMEPRAZOLE] registered a HepSE_bilirubinemia in the series on Hepatotoxicity [1] of 1. The compound also gave a HepSE_liver fatty with Hepatotoxicity [2] of 0. In the series on Hepatotoxicity [3], this compound showed a HepSE_cholecystitis of 0. In the series on Hepatotoxicity [4], this compound returned a HepSE_cholelithiasis of 1. For the same compound, the “HepSE_Combined Scores” value in the series on Hepatotoxicity [5] is 7. This compound came in with a HepSE_hepatomegaly in the series on Hepatotoxicity [6] of 0. The same compound had a HepSE_hepatic necrosis in the series with Hepatotoxicity [7] of 1. In the series with Hepatotoxicity [8], this compound came in with a HepSE_liver disease of 1. Moreover, the HepSE_cirrhosis in the series on Hepatotoxicity [9] stood at 0. The compound also returned a HepSE_hepatitis in the series with Hepatotoxicity [10] of 1. Further, in the series on Hepatotoxicity [11], the “HepSE_elevated liver function tests” value was determined as 0. For the same compound, the HepSE_jaundice with Hepatotoxicity [12] was 1. For the same compound, the HepSE_hepatic failure in the series on Hepatotoxicity [13] is on record as 1. For the same compound, in the series with Hepatotoxicity [14], the “HepSE_liver function tests abnormal” value was found to be 0.

In turn, `CCCCCCCN(CC)CCCC(O)c1ccc(NS(C)(=O)=O)cc1` (stereo not given) [IBUTILIDE] returned a HepSE_bilirubinemia in the series on Hepatotoxicity [1] of 0. Further, the HepSE_liver fatty with Hepatotoxicity [2] is given as 0. In addition, the HepSE_cholecystitis with Hepatotoxicity [3] stood at 0. The same compound showed a HepSE_cholelithiasis with Hepatotoxicity [4] of 0. Besides, the “HepSE_Combined Scores” value in the series on Hepatotoxicity [5] was determined as 1. Also, the HepSE_hepatomegaly with Hepatotoxicity [6] was 0. In the series on Hepatotoxicity [7], the HepSE_hepatic necrosis is on record as 0. In addition, the HepSE_liver disease in the series on Hepatotoxicity [8] amounted to 0. The compound further returned a HepSE_cirrhosis in the series on Hepatotoxicity [9] of 0. The compound further returned a HepSE_hepatitis with Hepatotoxicity [10] of 0. Further, the “HepSE_elevated liver function tests” value with Hepatotoxicity [11] is on record as 1. This compound also displayed a HepSE_jaundice in the series with Hepatotoxicity [12] of 0. In the series with Hepatotoxicity [13], this compound yielded a HepSE_hepatic failure of 0. The “HepSE_liver function tests abnormal” value in the series with Hepatotoxicity [14] is listed as 0.

On to `O=c1[nH]c(=O)n([C@H]2C[C@H](O)[C@@H](CO)O2)cc1I` [IDOXURIDINE], for which, in the series with Hepatotoxicity [1], the HepSE_bilirubinemia stood at 0. Further, in the series with Hepatotoxicity [2], the HepSE_liver fatty is given as 0. The compound also gave a HepSE_cholecystitis with Hepatotoxicity [3] of 0. Also, the HepSE_cholelithiasis with Hepatotoxicity [4] worked out at 0. For the same compound, in the series with Hepatotoxicity [5], the “HepSE_Combined Scores” value was 0. In addition, the HepSE_hepatomegaly with Hepatotoxicity [6] stood at 0. The compound further registered a HepSE_hepatic necrosis in the series with Hepatotoxicity [7] of 0. This compound had a HepSE_liver disease in the series with Hepatotoxicity [8] of 0. In addition, the HepSE_cirrhosis in the series with Hepatotoxicity [9] worked out at 0. In the series on Hepatotoxicity [10], this compound yielded a HepSE_hepatitis of 0. Moreover, the “HepSE_elevated liver function tests” value with Hepatotoxicity [11] is 0. The same compound came in with a HepSE_jaundice in the series with Hepatotoxicity [12] of 0. Also, the HepSE_hepatic failure in the series with Hepatotoxicity [13] was found to be 0. Also, in the series with Hepatotoxicity [14], the “HepSE_liver function tests abnormal” value worked out at 0.

Regarding `CC(=O)O[C@H]1C[C@@H]2CC[C@@H]3[C@H](CC[C@@]4(C)[C@H]3C[C@H]([N+]3(C)CCCCC3)[C@@H]4OC(C)=O)[C@@]2(C)C[C@@H]1N1CCCCC1` [VECURONIUM], the HepSE_bilirubinemia with Hepatotoxicity [1] came out at 0. In addition, in the series on Hepatotoxicity [2], the HepSE_liver fatty stood at 0. The same compound showed a HepSE_cholecystitis with Hepatotoxicity [3] of 0. Also, the HepSE_cholelithiasis with Hepatotoxicity [4] is 0. Besides, the “HepSE_Combined Scores” value in the series on Hepatotoxicity [5] stood at 0. This compound registered a HepSE_hepatomegaly in the series on Hepatotoxicity [6] of 0. The HepSE_hepatic necrosis with Hepatotoxicity [7] was found to be 0. The HepSE_liver disease in the series with Hepatotoxicity [8] was found to be 0. Also, the HepSE_cirrhosis in the series on Hepatotoxicity [9] came out at 0. This compound also had a HepSE_hepatitis in the series with Hepatotoxicity [10] of 0. Moreover, in the series on Hepatotoxicity [11], the “HepSE_elevated liver function tests” value worked out at 0. Besides, the HepSE_jaundice with Hepatotoxicity [12] amounted to 0. This compound also gave a HepSE_hepatic failure in the series with Hepatotoxicity [13] of 0. Also, the “HepSE_liver function tests abnormal” value in the series with Hepatotoxicity [14] was 0.
